Assay results: US12042523B2, “Compositions and methods for managing or improving bone disorders, joint disorders, cartilage disorders, or a combination thereof” (Unigen, Inc., priority 2014, dated 2024)

Tested on: MIA-induced osteoarthritis in Sprague-Dawley rats
Test: Histopathology of femorotibial joint, modified Mankin score, MIA-induced OA model
Type: in vivo, rat
Protocol: Treatment started a week before MIA injection. […] The standardized blends for each treatment groups are defined as UP446=1A:4S, UP1306=1A:2M and the composition at the given dosage=0.282A:0.308S:0.410M where “A”, “S” and “M” stands for acacia, scutellaria and moms, respectively. On the induction day, isoflurane (Lot #B66H15A, Piramal Enterprise Ltd. Andhra Pradesh, India) anesthetized rats were injected with 0.8 mg of MIA (Lot #A0352046, Acros Organics, New Jersey, USA) in 50 μL saline solution into the intra-articular pocket of left femorotibial (knee) joint using 26 G needle an hour after treatment. Normal control rats were injected with an equal volume of saline. […] Body weights were measured once a week to calculate the respective weekly dosage of each group. The merit of combining UP1306 and UP446 was then evaluated using the Colby's equation (Colby, 1967). Pain sensitivity percent inhibition values were used to determine the calculated efficacy values and compared to the observed percent inhibition values of the composition.
At necropsy, animals were asphyxiated with CO2 and the femorotibial joint was carefully dissected out, fixed in 10% buffered formalin and sent to Nationwide Histology (Veradale, WA, USA) for further histopathology analysis. The fixed specimens were then decalcified with Calci-Clear Rapid for 1 and a half days and embedded in paraffin. Standardized 5 μm serial sections were obtained at the medial and lateral midcondylar level in the sagittal plane and were stained with hematoxylin and eosin (HE) and Safranin O-fast green to enable evaluation of proteoglycan content. A modified Mankin system (Mankin et al., 1981) was used to score structural and cellular alterations of articular components as indications of disease progression and/or treatment efficacy. The histological analysis was conducted by a certified Pathologist at Nationwide Histology.

[1] = MIA 0.8 mg/joint, Diclofenac 10, UP1306 400, UP446 250, Composition 650 mg/kg

With `O=C(O)Cc1ccccc1Nc1c(Cl)cccc1Cl` [Diclofenac] the “reduction in overall structural abnormality” value (AM 400, UP446 250, AU 650, Diclofenac 10 mg/kg) was 51.4%, the “reduction in matrix GAG loss (Safranin O)” value (Diclofenac 10, AM 400, UP446 250, AU 650 mg/kg) was 46.0% and the “Bone at Articular surfaces (modified Mankin score 0-6)” value [1] was 0.70 ± 0.24. The “Fibrovascular proliferation (modified Mankin score 0-6)” value [1] was 1.55 ± 0.69, the “Inflammation/ Cellular infiltration (modified Mankin score 0-6)” value [1] was 0.55 ± 0.15 and the “Matrix GAGs (modified Mankin score 0-6)” value [1] was 1.44 ± 0.38. The “Structural abnormality (modified Mankin score 0-6)” value [1] was 1.23 ± 0.36.
